Source: the NIST ThermoML archive (doi:10.1021/je060052p)

Assays:
[1] = refractive index (Na D-line) (dimensionless); details: 298.15 K; 101.33 kPa; Liquid
[2] = Liquid; for mass density / speed of sound: 298.15 K, 101.33 kPa; for vapor or sublimation pressure: Ebulliometric method (Recirculating still)
[3] = refractive index (Na D-line) (dimensionless); xn = mol fraction of the nth substance listed; details: 298.15 K, 101 kPa, Liquid
[4] = xn = mol fraction of the nth substance listed; details: 298.15 K, 101 kPa, Liquid

CCOC(=O)C(C)O (racemic) [DL-ethyl lactate]
Details	mass density [kg/m3]	refractive index	speed of sound [m/s]
[1]	–	1.4105	–
[2]	1028.02	–	1277

Details	vapor or sublimation pressure [kPa]
[2], 424.98 K	101.3

CCOC(=O)C(C)O (stereo not drawn) [DL-ethyl lactate] + CCOC(C)=O
Details	mass density, [4] [kg/m3]	refractive index, [3]	speed of sound, [4] [m/s]
x2 = 0.049	1022.5	1.4088	1267
x2 = 0.1	1016.77	1.40722	1263
x2 = 0.15	1010.85	1.40535	1256
x2 = 0.2	1004.94	1.40357	1249
x2 = 0.251	998.8	1.40168	1243
x2 = 0.3	992.68	1.40005	1236
x2 = 0.35	986.4	1.39819	1229
x2 = 0.4	979.87	1.39623	1222
x2 = 0.45	973.59	1.39451	1215
x2 = 0.5	966.98	1.39263	1208
x2 = 0.55	960.41	1.3906	1201
x2 = 0.6	953.46	1.38855	1194
x2 = 0.65	946.64	1.38645	1188
x2 = 0.7	939.6	1.3842	1180
x2 = 0.756	931.41	1.38126	1173
x2 = 0.8	924.84	1.37923	1167
x2 = 0.849	917.72	1.37694	1160
x2 = 0.9	910.03	1.3747	1153
x2 = 0.95	902.37	1.3722	1145

CCOC(=O)C(C)O (stereo not drawn) [DL-ethyl lactate] + COC(C)=O
Details	mass density, [4] [kg/m3]	refractive index, [3]	speed of sound, [4] [m/s]
x2 = 0.058	1024.62	1.40872	1272
x2 = 0.1	1021.03	1.40699	1266
x2 = 0.15	1017.3	1.40595	1261
x2 = 0.2	1013.63	1.40379	1255
x2 = 0.25	1009.78	1.4023	1250
x2 = 0.3	1005.46	1.39968	1244
x2 = 0.35	1001.13	1.39787	1238
x2 = 0.4	996.59	1.39628	1232
x2 = 0.45	992.2	1.39379	1226
x2 = 0.5	987.41	1.39125	1220
x2 = 0.55	982.34	1.3879	1213
x2 = 0.6	977.25	1.38498	1207
x2 = 0.65	972.03	1.38197	1200
x2 = 0.7	966.3	1.37916	1193
x2 = 0.75	960.47	1.37601	1186
x2 = 0.8	954.34	1.37278	1180
x2 = 0.85	947.87	1.3696	1172
x2 = 0.9	941.28	1.36642	1164
x2 = 0.95	934.27	1.36248	1157

CCOC(C)=O [ethyl acetate]
Details	mass density [kg/m3]	refractive index	speed of sound [m/s]
[1]	–	1.36978	–
[2]	894.29	–	1138

Details	vapor or sublimation pressure [kPa]
[2], 350.25 K	101.3

COC(C)=O [methyl ethanoate]
Details	mass density [kg/m3]	refractive index	speed of sound [m/s]
[1]	–	1.35865	–
[2]	926.96	–	1148

Details	vapor or sublimation pressure [kPa]
[2], 330.03 K	101.3
